Assay results as given in patent US11421278B2, “Method to monitor pharmacodynamic responses mediated by in vivo administration of glucocorticoids” (BRISTOL-MYERS SQUIBB COMPANY, priority 2017, dated 2022).

Assays:
[1] = test system: glucocorticoid-regulated genes in whole blood; assay: Whole blood induction of single genes, prednisolone versus placebo, Prednisoline in Healthy Male cohort 2; assay type: in vivo, human
Description: Further refinement of the 64 member gene signature would facilitate implementation in the clinic. […] The list was further filtered for detectable expression in the abatacept SLE trial. Of the initial 64 genes, 18 (FKBP5, ECHDC3, IL1R2, ZBTB16, IRS2, IRAK3, ACSL1, DUSP1, PHC2, TLR2, TSC22D3, SLA, CRISPLD2, MAN2A2, FAR2, CEBPD, SPTLC2, HSPA6) met these criteria. The top 3 genes (FKBP5, ECHDC3 and IL1R2), top 6 genes (FKBP5, ECHDC3 IL1R2, ZBTB16, IRS2, IRAK3) and top 8 genes (FKBP5, ECHDC3, IL1R2, ZBTB16, IRS2, IRAK3, ACSL1, DUSP1) from the list were then used to calculate ssGSEA scores.
CEL files from the Affymetrix Array Station were processed and normalized using the Robust Multi-Array Average (RMA) algorithm (Gautier I, et. al., Bioinformatics 2004; 20:307-15) using the “Affy” package in R (version 3.2.1; 16) and Bioconductor (Gentleman R C, et. al. Genome Biol. 2004, 5 (10):R80) with custom CDF files from BrainArray (version 18.0.0; Dai M, et. al., Nucleic Acids Res 2005; 33:e175). Differential gene expression analysis was run to compare gene expression levels in prednisolone-treated versus control samples, using a moderated t-test (Ritchie M E, et. al., Nucleic Acids Res 2015; 43:e47) in Array Studio (OmicSoft, Cary, N.C., USA). P values were adjusted using the multiple test correction method which is also called false discovery rate (FDR, Benjamini Y, et. al., J. Royal Statistical Soc., Series B 1995; 57:289).
Male normal healthy volunteers were randomly assigned to receive either a placebo of polyethylene glycol (PEG)-400 solution (4 participants); a single daily oral dose of GR modulator BMS-791826 (150 or 300 mg) as a PEG-400 solution (6 participants/dose); or a single daily dose of 10 mg prednisolone (4 participants) for 3 consecutive days. PAXgene tubes were collected before dosing and at 4 hours post-dose on day 1.

[2] = test system: whole blood; assay: Whole blood cultured in vitro, GC gene signature (ssGSEA) score; assay type: cell-based, human
Description: Many of these genes were known glucocorticoid-regulated genes (Chinenov Y, et. al., BMC Genomics 2014; 15:656). […] Network analysis of the regulated genes indicated enrichment for immune-response pathways. Single-sample gene set enrichment analysis (ssGSEA) algorithm was used to generate a composite score (or gene signature) for enrichment of these genes in the transcriptomes of individual samples (Barbie D A, et. al. Nature 2009; 462:108-12).
For profiling of whole blood, anticoagulant citrate dextrose solution A-containing whole blood from 4 normal healthy volunteers was cultured with either DMSO vehicle, 200 nM prednisolone, 1 μM prednisolone, 5 μM prednisolone, 5 μM GR modulators BMS-791826, or 10 μM BMS-776532 for 5 hours, followed by transfer to a PAXgene tube. Total RNA was isolated, and then treated with DNase I and cleaned up using a Qiagen RNeasy MinElute Cleanup Kit. RNA concentrations were determined using NanoDrop (Thermo Fisher Scientific, Waltham, Mass., USA) and RNA quality was evaluated using the Experion electrophoresis system (Bio-Rad Laboratories, Hercules, Calif., USA). All target labeling reagents were purchased from Affymetrix (West Sacramento, Calif., USA).
Double-stranded cDNAs were synthesized from 1 μg of total RNA through reverse transcription with an oligo-dT primer containing the T7 RNA polymerase promoter and double-strand conversion using the cDNA Synthesis System (Invitrogen, Carlsbad, Calif., USA). Biotin-labeled cRNA was generated from the cDNA and used to probe a Human Genome HT_HG-U133A plate (Affymetrix, Sunnyvale, Calif., USA), consisting of 96 single HG-U133A arrays in a 96-well plate. All cDNA and cRNA target preparation steps were processed on a Caliper GeneChip Array Station from Affymetrix. Array hybridization, washing, and scanning were performed according to the manufacturer's recommendations. […]

[3] = test system: peripheral blood mononuclear cells (PBMCs); assay: Gene expression profiling of PBMCs cultured with prednisolone or DMSO (Affymetrix); assay type: cell-based, human; settings: 1 μM prednisolone, 6 hours
Method: In order to monitor glucocorticoid-dependent responses in peripheral blood, genes modulated by prednisolone in human PBMCs were identified. PBMCs from 10 independent normal healthy volunteer donors were treated with either DMSO control or 1 μM prednisolone for 6 hours.
Lymphocytes were isolated from the blood of 10 independent donors using Ficoll gradient centrifugation. Cells were cultured at 5 million lymphocytes/well of a 96-well flat-bottom block plate (Qiagen, Hilden, Germany) in 500 μl assay media (RPMI-1640 with GlutaMAX, 10% charcoal-stripped fetal bovine serum; Gibco Laboratories, Gaithersburg, Md., USA). Cells were cultured for 6 hours with either dimethyl sulfoxide (DMSO) vehicle or 1 μM prednisolone. After 6 hours, cells were pelleted and resuspended in 1 ml nucleic acid purification lysis solution (Applied Biosystems, Foster City, Calif., USA) diluted 1:2 with calcium and magnesium-free phosphate-buffered saline (Invitrogen, Carlsbad, Calif., USA). Cells were incubated in lysis buffer for 10 min at room temperature followed by storage at −80° C. RNA was isolated using the Qiagen RNeasy isolation kit according to manufacturer's instructions. […]

[4] = test system: GC gene signature in whole blood; assay: In vivo GC gene signature kinetics, Prednisoline in Healthy Male Cohort 1; parameters: species or system human
Method: (§1) Since the glucocorticoid (GC) signature accurately captured glucocorticoid receptor (GR) agonist activity in vitro, the behavior of the GC gene signature in vivo was tested. Normal healthy volunteers (NHV) were dosed with placebo, 10 mg prednisolone, or 150 or 300 mg GR modulator BMS-791826. Blood was drawn before and 4 hours post-dosing, and RNA was analyzed by Affymetrix gene expression profiling. […] To address the kinetics of the GC gene signature response, whole blood RNA profiles from NHVs who were administered different doses of prednisolone was analyzed. […] For all but the highest dose of prednisolone, GC gene signature scores had returned to baseline levels by 8 hours post-dose. The signature score was at baseline levels in all groups by 48 hours post-dosing.
To score an individual sample by the enrichment level of GC gene signatures, we adapted the single-sample gene set enrichment analysis (ssGSEA) algorithm (Barbie D A, et. al., Nature 2009; 462:108-12) to generate a composite score, which was implemented using the Gene Set Variation Analysis package in R (version 3.4.0, Hanzelmann S, et. al., BMC Bioinformatics 2013; 14:7). The algorithm was modified so that enrichment scores fell between −1 and 1, representing the lowest to the highest possible rankings of GC genes in the transcriptome.
Male normal healthy volunteers were randomly assigned (6 participants/group) to receive daily doses of 5, 10, or 30 mg prednisolone for 7 days. Two participants received placebo. PAXgene tubes were collected before dosing and at 2, 4, 8, 48, 144, and 216 hours post-dose.

[5] = test system: GC gene signature in whole blood; assay: In vivo GC gene signature, Prednisoline in Healthy Male Cohort 2; parameters: species or system human; settings: normal healthy volunteers, oral, 10 mg prednisolone or 150 or 300 mg BMS-791826, 4 hours post-dosing, versus pre-dose and placebo (FIG. 3A)
Method: as §1
To score an individual sample by the enrichment level of GC gene signatures, we adapted the single-sample gene set enrichment analysis (ssGSEA) algorithm (Barbie D A, et. al., Nature 2009; 462:108-12) to generate a composite score, which was implemented using the Gene Set Variation Analysis package in R (version 3.4.0, Hanzelmann S, et. al., BMC Bioinformatics 2013; 14:7). The algorithm was modified so that enrichment scores fell between −1 and 1, representing the lowest to the highest possible rankings of GC genes in the transcriptome. […]

[6] = test system: GC gene signature in whole blood; assay: GC gene signature in baseline samples of the abatacept SLE phase II trial by reported prednisone dose; assay type: in vivo, human; settings: SLE patients, dose high (>30 mg), medium (10-30 mg), low (<10 mg) (FIG. 4B)
Method: To determine if the glucocorticoid signature could differentiate between patients based on treatment status, expression of the signature in cross-sectional cohorts of patients with SLE or RA were analyzed. Relative to either normal healthy controls or patients treated with other standard-of-care medications, the patients with SLE or RA who were prescribed glucocorticoids had elevated signature scores (FIG. 4A). While the glucocorticoid signatures were elevated, there was significant inter-patient variability in the signature scores. Baseline samples from a phase II study of abatacept in SLE was analyzed (Fleishaker D L, et. al., BMC Musculoskelet Disord 2016; 17:29) for expression of the glucocorticoid gene signature (FIG. 4B). […] However, there was again significant inter-patient variability in glucocorticoid gene signature scores in all groups. This could reflect steroid resistance in some patients or compliance issues with some patients.
Baseline PAXgene collections and complete blood counts were obtained from 144 adults with SLE meeting the criteria of a British Isles Lupus Assessment Group (BILAG) score of A or B. The population at baseline consisted of 53% of patients with polyarthritis, 35% with discoid lupus, and 12% with serositis. […]

C[C@]12C=CC(=O)C=C1CC[C@@H]1[C@@H]2[C@@H](O)C[C@@]2(C)[C@H]1CC[C@]2(O)C(=O)CO [prednisolone]
logFC ACSL1 [1]: 1.43
logFC CEBPD [1]: 0.86
logFC CRISPLD2 [1]: 0.94
logFC DUSP1 [1]: 1.37
logFC ECHDC3 [1]: 2.34
logFC FAR2 [1]: 0.88
logFC FKBP5 [1]: 2.85
logFC HSPA6 [1]: 0.67
logFC IRAK3 [1]: 1.45
logFC IRS2 [1]: 1.75
logFC MAN2A2 [1]: 0.91
logFC PHC2 [1]: 1.15
logFC SLA [1]: 0.98
logFC SPTLC2 [1]: 0.75
logFC TLR2 [1]: 1.11
logFC TSC22D3 [1]: 1.08
logFC ZBTB16 [1]: 2.04
glucocorticoid gene signature score, rank order ([2]; 5 μM prednisolone, 5 μM BMS-791826, 10 μM BMS-776532, 5 hours (FIG. 2E)): prednisolone>BMS-791826>BMS-776532
ssGSEA score for the upregulated genes ([2]; whole blood, different concentrations of prednisolone, 5 hours (FIG. 1C)): increased dose dependently
expression of the downregulated genes (ssGSEA score) ([2]; whole blood, different concentrations of prednisolone, 5 hours (FIG. 1D)): decreased in a dose-dependent manner
fold change of upregulated genes versus vehicle ([3]; FDR-adjusted P ≤0.05, genes of FIG. 1A): > 2 fold
fold change of downregulated genes versus vehicle ([3]; FDR-adjusted P ≤0.05, genes of FIG. 1B): > 2 fold
time of peak of GC gene signature score post-dose ([4]; 5, 10 or 30 mg prednisolone): 4 h
time by which GC gene signature scores had returned to baseline ([4]; all but the highest dose of prednisolone): ≤ 8 h
time by which signature score was at baseline levels ([4]; all groups): ≤ 48 h
GC gene signature score, dose dependence ([4]; normal healthy volunteers, 5, 10 or 30 mg prednisolone (FIG. 3B)): increased dose dependently
GC signature score [5]: significantly elevated

C[C@]12C=CC(=O)C=C1CC[C@@H]1[C@@H]2C(=O)C[C@@]2(C)[C@H]1CC[C@]2(O)C(=O)CO [prednisone]
glucocorticoid gene signature scores versus reported dose [6]: generally aligned well with reported prednisone dose
